Broadly, the IC50 is the midpoint of a concentration-inhibition curve.

Recombinant human Mat2a, sequence (P31153 whole entry): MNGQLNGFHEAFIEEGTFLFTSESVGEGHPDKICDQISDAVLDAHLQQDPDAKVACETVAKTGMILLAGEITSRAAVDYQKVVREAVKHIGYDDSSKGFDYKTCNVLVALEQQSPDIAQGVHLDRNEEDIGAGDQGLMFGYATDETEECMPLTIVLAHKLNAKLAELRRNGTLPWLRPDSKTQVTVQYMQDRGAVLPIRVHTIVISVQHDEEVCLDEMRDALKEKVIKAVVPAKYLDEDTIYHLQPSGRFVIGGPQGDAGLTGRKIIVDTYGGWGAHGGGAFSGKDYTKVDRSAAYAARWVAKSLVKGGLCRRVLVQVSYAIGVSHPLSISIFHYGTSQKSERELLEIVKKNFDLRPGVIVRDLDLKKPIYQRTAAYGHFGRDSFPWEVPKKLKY

For the assay, the target named is Recombinant human Mat2a (Homo sapiens, UniProt P31153). Kind of assay: Determination of Mat2A activity (384 well absorbance-based assay, Biomol Green). In kind it is biochemical. As to conditions: 12.5 nM Mat2A, 100 μM ATP and Methionine, 2% DMSO, 120 minutes at RT, absorbance at 635 nm. Put shortly:
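Recombinant human Mat2A (12.5 nM) was preincubated with compound for 15 min at RT in HEPES pH 7.5 buffer with 2% DMSO. The reaction was started with 100 μM each of ATP and methionine and ran 120 min at RT. Phosphate was detected with Biomol Green by absorbance at 635 nm.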
As to `Nc1nc(=O)n(-c2cccc3c2CCO3)c2cc(OC(F)(F)F)ccc12` [Example 160, 4-amino-1-(2,3-dihydro-1-benzofuran-4-yl)-7-(trifluoromethoxy)quinazolin-2-one], the half-inhibitory concentration (IC50) turned out to be 0.018 µM. Consider `Nc1nc(=O)n(-c2cccc(Cl)c2F)c2nc(C3CC3)ccc12` [Example 161, 4-amino-1-(3-chloro-2-fluorophenyl)-7-cyclopropylpyrido[2,3-d]pyrimidin-2-one], for which the half-inhibitory concentration (IC50) was < 0.013 µM. `Nc1nc(=O)n(-c2cccc3c2CCO3)c2nc(C(F)(F)F)ccc12` [Example 162, 4-amino-1-(2,3-dihydrobenzofuran-4-yl)-7-(trifluoromethyl)pyrido[2,3-d]pyrimidin-2 (1H)-one]: the IC50 is < 0.013 µM.

For the compound `Nc1nc(=O)n(-c2cccc(OC(F)(F)F)n2)c2nc(C3CC3)ccc12` [Example 163, 4-amino-7-cyclopropyl-1-[6-(trifluoromethoxy)pyridin-2-yl]pyrido[2,3-d]pyrimidin-2-one], the 50% inhibitory concentration (IC50) was found to be 0.031 µM. Next, `Nc1nc(=O)n(-c2cccc3[nH]ccc23)c2nc(C3CC3)ccc12` [Example 164, 4-amino-7-cyclopropyl-1-(1H-indol-4-yl)pyrido[2,3-d]pyrimidin-2-one]: < 0.013 µM; `Cc1c(F)cccc1-n1c(=O)nc(N)c2ccc(C(F)(F)F)nc21` [Example 165, 4-amino-1-(3-fluoro-2-methylphenyl)-7-(trifluoromethyl)pyrido[2,3-d]pyrimidin-2 (1H)-one]: < 0.013 µM.

These data come from patent US20230227449A1, “AMIDOPYRIMIDONE DERIVATIVES” (Hoffmann-La Roche Inc., priority 2020, published 2023).
